Literature values, collected in patent US7579326B2, “Gene switch systems employing regulators with decreased dimerization” (Genetronics, Inc., priority 2000, dated 2009).

Tests used:
[1] = rats
[2] = target: palindromic 17-mer GAL-4 DNA binding site

| half-life [1] [h] | Kd [2] [nM] | Compound |
| --- | --- | --- |
| 1 | – | CC#C[C@]1(O)CC[C@H]2[C@@H]3CCC4=CC(=O)CCC4=C3[C@@H](c3ccc(N(C)C)cc3)C[C@@]21C [MFP, 11β-(4-dimethylaminophenyl)-17β-hydroxy-17α-propynyl-4,9-estradiene-3-one] |
| – | 3 | GAL-4, residues 1-100: yeast GAL-4 DNA binding domain fragment, residues 1-100 |
